Where two headings read alike, the source gives them in different places. {FAM} = fluorescein amidite label

Data set [1] addresses T1, MSUT2 ZF (Homo sapiens, UniProt Q6PJT7).
T1 construct: Targeted construct consisted of the c-terminal end (dark blue and amino acids 601-736) of MSUT2; made in house; host or cells: E. coli BL21 (DE3)
T1 sequence (Q6PJT7 601-736): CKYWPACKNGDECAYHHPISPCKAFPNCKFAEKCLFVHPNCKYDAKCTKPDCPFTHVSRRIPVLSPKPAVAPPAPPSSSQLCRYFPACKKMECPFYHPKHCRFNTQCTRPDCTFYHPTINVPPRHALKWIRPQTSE
The experiment in a line: Fluorescence polarization assay of FAM-poly(A) RNA:MSUT2 ZF binding. The settings on record: for Ki (nm) for MSUT2 / Ki: calculated by Cheng Prusof equation Ki=(IC50)/[(L/Kd)+1], FP dose response; for Ki: read-out: Ki (nm) for MSUT2. How it is done: Fluorescence Polarization Assay. […] 2 μL of compound was transferred for a final concentration of 10 μM. […] Fluorescence polarization was calculated by first subtracting background from a buffer-only control well and then using the equation
Results and Discussion. A high-throughput fluorescence polarization assay for inhibition of poly(A):MSUT2 RNA interaction. […] In order to screen potential inhibitors of MSUT2 RBP and RNA by FP, fluorescent FAM (fluorescein amidite)-labeled poly(A)15 RNA (FAM-RNA) and recombinant MSUT2 ZF (zinc finger) protein expressing constructs were generated (FIG. 7a). […] Inhibition of the interaction results in unbound FAM-RNA tumbling at a relatively rapid rate and emitting non-polarized light (FIG. 7b).
(§1) To determine the concentrations of both MSUT2 ZF protein and FAM-RNA probe useful in the methods described herein, a two dimensional titration of protein and RNA concentrations in 96-well format was performed. […] Next, the binding constant between MSUT2 ZF and FAM-RNA was determined by holding FAM-RNA constant at 10 nM while increasing MSUT2 ZF concentration.
(§2) Identification and validation of MSUT2 inhibitory compounds from NIHCC library. […] IC50 of each of the previous 8 compounds was determined for PABPN1 using fluorescence polarization (FIG. 11), and a specificity ratio determined (Table 3). An Alpha Screen (AS) assay was developed as an orthogonal screen. Briefly, in this screen, biotinylated RNA binds streptavidin-coated donor beads, while GST-MSUT2 ZF binds glutathione-coated acceptor beads. When donor beads and acceptor beads are brought within close proximity of one another, laser excitation leads to fluorophore emission of the acceptor bead via excited singlet oxygen activating chemiluminescers in the acceptor beads. […] Toxicity of these compounds in a HEK cell model was determined using a standard Promega Cell Titer Glo assay.
(§3) Fluorescence Polarization Assay. […] of stock compound was transferred yielding 10 μM final concentration. […] Fluorescence polarization was calculated by first subtracting background from a buffer-only control well and then using the equation

Data set [2] deals with HEK-293 cells. The data set is described as follows: Cell viability, Promega Cell Titer Glo.
Data set [3] has as its target T2, PABPN1 (Homo sapiens, UniProt Q86U42).
T2 construct: made in house; host or cells: E. coli BL21 (DE3)
T2 sequence (Q86U42 1-306): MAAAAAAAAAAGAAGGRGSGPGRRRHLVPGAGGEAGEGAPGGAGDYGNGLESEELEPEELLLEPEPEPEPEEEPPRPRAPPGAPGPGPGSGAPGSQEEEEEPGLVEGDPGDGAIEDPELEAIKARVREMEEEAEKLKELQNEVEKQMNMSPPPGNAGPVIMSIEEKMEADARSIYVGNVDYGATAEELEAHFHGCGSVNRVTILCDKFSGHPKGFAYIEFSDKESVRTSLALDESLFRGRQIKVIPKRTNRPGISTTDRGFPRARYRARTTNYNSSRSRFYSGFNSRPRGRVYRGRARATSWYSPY
The data set is described as follows: PABPN1 fluorescence polarization counter screen. The class given is binding. The settings on record: for IC50 / IC50PABPN1: fluorescence polarization counter screen; for IC50: unit inferred, read-out: IC50PABPN1; for IC50PABPN1: unit not given; for PABPN1/MSUT2 specificity ratio: ratio of FP IC50s. How it is done:
A drug repurposing strategy: screening of the NIH Clinical Collection compound library. […] The plan to find suitable lead compounds for drug repurposing began with a screen of the NIH Clinical Collection (NIHCC) library. The NIHCC consists of a diverse array of 700 compounds with historical pharmacological use and well-studied safety profiles. […] An orthogonal poly(A):MSUT2 binding assay allowed the ruling out of assay interference while selectivity against MSUT2 over PABPN1 was determined by a parallel FP assay with PABPN1 as the RBP. […] Thus, the goal was to eliminate compounds interfering with both PABN1 and MSUT2 and focus on compounds truly specific for poly(A):MSUT2 binding.
as §2, §3
Background: Fluorescence polarisation rises when a labelled molecule tumbles more slowly, as on binding a larger partner.

For data set [4], the target named is T3, GST-MSUT2 (Homo sapiens, UniProt Q6PJT7).
T3 construct: Targeted construct consisted of the c-terminal end (dark blue and amino acids 601-736) of MSUT2; made in house; host or cells: E. coli BL21 (DE3)
T3 sequence (Q6PJT7 601-736): T1 sequence (Q6PJT7 601-736)
The experiment in a line: Alpha Screen assay of biotinylated poly(A) RNA:GST-MSUT2 binding. To be noted: orthogonal dose-response validation. As for the experimental part:
Alpha Screen Assay. Samples were set up in 384 well Perkin Elmer white opaque-bottom plates (PE06). A total reaction volume of […] was plated in 384 format using a CyBio Well Vario (6 μL of donor beads (10 μg/mL), 3 μL biotinylated RNA (250 nM), 3 μL GST-MSUT2 protein (250 nM) per well). 50 nL of compounds were transferred to wells via CyBio Vario equipped with Pin Tool. This mixture was incubated at room temperature for 30 minutes away from light. Next 3 μL of acceptor beads (1.25 μg/mL) was added. Plates were incubated at room temperature away from light for 60 minutes and subsequently read on a Perkin Elmer EnVision multimode microplate reader equipped with stackers using a standard 384-well Alpha Assay software protocol.
Results. Alpha Screen design and underlying principle. Alpha Screen technology relies on donor beads, coated with a hydrogel excitable by 680 nm, brought within close proximity to an acceptor bead leading to light emission and detection. In this assay, streptavidin coated donor beads tightly bind to biotinylated-poly(A) RNA while the glutathione-coated acceptor bead binds to GST-tagged MSUT2 protein. […] When this interaction is blocked by an inhibitor, the proximity threshold for donor and acceptor beads is not met, singlet oxygen transference cannot occur, and light is not emitted by the acceptor bead (FIG. 1a).
Identification and validation of MSUT2 inhibitory compounds from NIHCC library. The single-point primary screen was conducted in duplicate and utilized the FP assay conditions determined herein (e.g., 125 nM MSUT2 RNABP and 10 nM FAM-RNA probe) with 10 μM library compounds added in a 96-well format. […] Compound specificity was empirically tested by counter screening against PABPN1, a regulator of the length of mRNA poly(A) tails (Apponi, L. H. et al. Hum Mol Genet 19, 1058-1065, (2010); and Benoit, B. et al. Dev Cell 9, 511-522, (2005)). IC50 of each of the previous 8 compounds was determined for PABPN1 using fluorescence polarization (FIG. 11), and a specificity ratio determined (Table 3). An Alpha Screen (AS) assay was developed as an orthogonal screen. Briefly, in this screen, biotinylated RNA binds streptavidin-coated donor beads, while GST-MSUT2 ZF binds glutathione-coated acceptor beads. […] Toxicity of these compounds in a HEK cell model was determined using a standard Promega Cell Titer Glo assay.
Alpha Screen Assay. […] The plate was then incubated again at room temperature away from light for 60 minutes and subsequently read on a Perkin Elmer EnSight multimode microplate reader using a standard 96-well Alpha Assay protocol.

For data set [5], the target named is T4, PABPN1 (UniProt Q86U42 Q86U42:1-306).
T4 sequence: T2 sequence (Q86U42 1-306)
The experiment in a line: Alpha Screen counter-screen. The settings on record: tags: GST (pGEX-6P1); label: 5' biotin.

Data set [6] deals with T5, MSUT2 ZF (ZC3H14 C-terminal CCCH zinc finger domain) (UniProt Q6PJT7 Q6PJT7:601-736).
T5 sequence: T1 sequence (Q6PJT7 601-736)
The experiment in a line: FP; PBS, room temperature, 10 nM FAM-RNA; reported as affinity / binding constant. The settings on record: tags: GST (pGEX-6P1); label: 5' FAM. How it is done:
as §1, §3

Data set [7] has as its target T5, MSUT2 ZF (ZC3H14 C-terminal CCCH zinc …). The experiment in a line: competition; FP competition, 10 nM FAM-RNA and 125 nM MSUT2 ZF, PBS. To be noted: tags: GST (pGEX-6P1). How it is done:
as §1, §3

Take `CNCC[C@@H](Oc1ccccc1C)c1ccccc1` [Atomoxetine]: in data set [1], the “Ki (nm) for MSUT2” value is given as “failed dose”. Regarding `O=C(O)C1=CC(=C(c2ccc(O)c(C(=O)O)c2)c2ccc(O)c(C(=O)O)c2)C=CC1=O` [Aurin tricarboxylic acid], in data set [2] (HEK-293, 72 hours, indicated concentrations), the “toxicity (effect on cell viability)” value was “relatively high toxicity at high concentrations”.

On to `O=C(N[C@H](CO)[C@H](O)c1ccc([N+](=O)[O-])cc1)C(Cl)Cl` [Chloramphenicol], for which the “Ki (nm) for MSUT2” value in data set [1] was “failed DR”. For `CC(C(=O)O)c1ccc(-c2ccccc2)c(F)c1` (centres unmarked) [Flurbiprofen], in data set [3], the IC50 was 6570 nM.

Regarding `CN1C2CCCC1CC(NC(=O)c1nn(C)c3ccccc13)C2` (centres unmarked) [Granisetron], the IC50PABPN1 entry in data set [3] was “None”. Besides, the Ki (in general, the equilibrium dissociation constant of an inhibitor or competing ligand from its target) in data set [1] was 534 nM. Moreover, the IC50 in data set [1] (read-out: IC50MSUT2) came to 541 nM.

Consider `OCCOCCN1CCN(C(c2ccccc2)c2ccc(Cl)cc2)CC1` (centres unmarked) [Hydroxyzine], for which, in data set [3], the IC50 is 23700 nM and the PABPN1/MSUT2 specificity ratio amounted to 40.7931. Also, the Ki in data set [1] was 573 nM. For the molecule `CC(C)(C)NC(=O)[C@@H]1CN(Cc2cccnc2)CCN1C[C@@H](O)C[C@@H](Cc1ccccc1)C(=O)N[C@H]1c2ccccc2C[C@H]1O` [Indinavir], the IC50 is 28900 nM in data set [3] and 927 nM in data set [1] (read-out: IC50MSUT2). The inhibition constant Ki in data set [1] was 916 nM. For `CCCCN1CCCC1CNC(=O)c1cc(C#N)c2ccccc2c1OC` (centres unmarked) [Nafadotride], in data set [3], the IC50 was 67700 nM and the PABPN1/MSUT2 specificity ratio was 77.11. Moreover, the Ki in data set [1] is 867 nM.

Take `CC(C)(C)NC(=O)[C@@H]1C[C@@H]2CCCC[C@@H]2CN1C[C@@H](O)[C@H](Cc1ccccc1)NC(=O)[C@H](CC(N)=O)NC(=O)c1ccc2ccccc2n1` [Saquinavir]: in data set [2] (HEK, highest tested dose of 4004, normalized to 2% DMSO vehicle), the cell viability (as a rule, the share of living cells, or the viability signal relative to a control) is reported as 65%. In addition, the IC50PABPN1 result in data set [3] is recorded as “None”. In data set [4], the “inhibition activity by Alpha Screen (AS)” value is recorded as “dose-dependent inhibition activity”. For the same molecule, the inhibition constant (Ki) in data set [1] is 188 nM.

Consider `C[C@H]1CCC[C@H](O)CCCCCc2cc(O)cc(O)c2C(=O)O1` [Zeranol], for which the “Ki (nm) for MSUT2” value in data set [1] is reported as “failed DR”. As to “FAM-RNA: fluorescent FAM (fluorescein amidite)-labeled poly(A)15 RNA probe (SEQ ID NO: 3) (AAAAAAAAAAAAAAA; RNA, 5' {FAM}, backbone not given here)”, the Kd in data set [1] (saturation assay, FAM-RNA constant at 10 nM, read-out: affinity for FAM-RNA:MSUT2 ZF interaction) amounted to 810 nM. As to “unlabeled poly(A)15 RNA: unlabeled poly(A) RNA 5′-AAAAAAAAAAAAAAA-3′ (SEQ ID NO: 2), positive control for inhibition (RNA, backbone not given here)”, the IC50 in data set [1] (10 nM FAM-RNA:125 nM MSUT2 ZF, positive control, read-out: IC50 in FP competition assay) is 320 nM. As to AAAAAAAAAAAAAAA (ssRNA) [biotin-poly(A)15], the binding result in data set [5] is listed as “binds”.

Turning to AAAAAAAAAAAAAAA (ssRNA) [FAM-poly(A)15], the Kd in data set [6] worked out at 810 nM.

Molecule AAAAAAAAAAAAAAA (ssRNA) [poly(A)15 unlabeled] came in with an IC50 in data set [7] of 320 nM.

The record behind these values is US20210386709A1, “COMPOSITIONS AND METHODS FOR SUPPRESSING MSUT2” (United States Government As Represented By The Department …, priority 2020, published 2021).
